{
  "source": "patent US11702419B2",
  "about": "“Heterocyclic compound and use thereof” (Takeda Pharmaceutical Company Limited, priority 2018, dated 2023)",
  "key": {"[1]": {"system": "NMDA receptor containing the NR2B subunit (hippocampus)", "assay": "[3H]MK-801 binding test in vivo", "set-up": "species or system Sprague Dawley rats", "conditions": "[3H]MK-801 binding inhibitory rate, rat hippocampus", "procedure": "[^3H]MK-801 Binding Test In Vivo\nIn order to confirm “functional antagonistic action on an NMDA receptor containing the NR2B subunit in vivo” which the compound of the present invention has, binding test was performed using tritium-labeled form of MK-801 ((5R,10S)-5-methyl-10,11-dihydro-5H-5,10-epiminodibenzo[a,d][7]annulene) ([^3H]MK-801), which is a compound capable of binding to the opening site of the NMDA receptor.\nThe example compound (3 mg/kg/2 mL, 0.5% MC water) or vehicle ([…], 0.5% MC water) was orally administered (p.o.) to Sprague Dawley rats (body weight 180-260 g). After a certain time (around after time-to maximum blood concentration), [^3H]MK-801 (20 μCi/kg/mL, Muromachi Kikai) was intravenously administered. After 10 min, the rats were euthanized by decapitation, and subjected to craniotomy, and the hippocampus was collected. The collected hippocampus was homogenized in 30 volumes (30 mL per 1 g tissue) ice-cooled 20 mM Hepes (pH7.5, Hampton Research) using a homogenizer (T10 basic Ultra-Turrax) for 10 sec. […] The filter was washed four times with ice-cooled saline (5 mL, Otsuka Pharmaceutical), put into a scintillation vial, and then 10 mL of liquid scintillator A (FUJIFILM Wako Pure Chemical Corporation) was added thereto, and the residual radioactivity was counted using liquid scintillation counter (ALOKA LSC-6100). Separately, the residual radioactivity in 100 μL of the homogenate before the filtration was counted in the same way. The value of [the residual radioactivity in the filter/the residual radioactivity in the 100 μL of the homogenate] was calculated as a [^3H]MK-801 binding rate to the NMDA receptor expressing in each individual hippocampus tissue. […] The difference between the percentage of [^3H]MK-801 binding rate in the group orally administered with the example compound and that in the vehicle control group (100%) was analyzed as [^3H]MK-801 binding inhibitory rate by the example compound."}, "[2]": {"biological_target": "T1, NMDA receptor composed of four subunits consisting of two sets of heterodimers of NR1 and NR2B (human GRIN1 and GRIN2B-expressing HEK293 cells) (Homo sapiens, UniProt Q13224)", "T1 construct": "host or cells: HEK293 (tetracycline-inducible expression)", "T1 sequence (Q13224 27-1484, other chains not shown)": "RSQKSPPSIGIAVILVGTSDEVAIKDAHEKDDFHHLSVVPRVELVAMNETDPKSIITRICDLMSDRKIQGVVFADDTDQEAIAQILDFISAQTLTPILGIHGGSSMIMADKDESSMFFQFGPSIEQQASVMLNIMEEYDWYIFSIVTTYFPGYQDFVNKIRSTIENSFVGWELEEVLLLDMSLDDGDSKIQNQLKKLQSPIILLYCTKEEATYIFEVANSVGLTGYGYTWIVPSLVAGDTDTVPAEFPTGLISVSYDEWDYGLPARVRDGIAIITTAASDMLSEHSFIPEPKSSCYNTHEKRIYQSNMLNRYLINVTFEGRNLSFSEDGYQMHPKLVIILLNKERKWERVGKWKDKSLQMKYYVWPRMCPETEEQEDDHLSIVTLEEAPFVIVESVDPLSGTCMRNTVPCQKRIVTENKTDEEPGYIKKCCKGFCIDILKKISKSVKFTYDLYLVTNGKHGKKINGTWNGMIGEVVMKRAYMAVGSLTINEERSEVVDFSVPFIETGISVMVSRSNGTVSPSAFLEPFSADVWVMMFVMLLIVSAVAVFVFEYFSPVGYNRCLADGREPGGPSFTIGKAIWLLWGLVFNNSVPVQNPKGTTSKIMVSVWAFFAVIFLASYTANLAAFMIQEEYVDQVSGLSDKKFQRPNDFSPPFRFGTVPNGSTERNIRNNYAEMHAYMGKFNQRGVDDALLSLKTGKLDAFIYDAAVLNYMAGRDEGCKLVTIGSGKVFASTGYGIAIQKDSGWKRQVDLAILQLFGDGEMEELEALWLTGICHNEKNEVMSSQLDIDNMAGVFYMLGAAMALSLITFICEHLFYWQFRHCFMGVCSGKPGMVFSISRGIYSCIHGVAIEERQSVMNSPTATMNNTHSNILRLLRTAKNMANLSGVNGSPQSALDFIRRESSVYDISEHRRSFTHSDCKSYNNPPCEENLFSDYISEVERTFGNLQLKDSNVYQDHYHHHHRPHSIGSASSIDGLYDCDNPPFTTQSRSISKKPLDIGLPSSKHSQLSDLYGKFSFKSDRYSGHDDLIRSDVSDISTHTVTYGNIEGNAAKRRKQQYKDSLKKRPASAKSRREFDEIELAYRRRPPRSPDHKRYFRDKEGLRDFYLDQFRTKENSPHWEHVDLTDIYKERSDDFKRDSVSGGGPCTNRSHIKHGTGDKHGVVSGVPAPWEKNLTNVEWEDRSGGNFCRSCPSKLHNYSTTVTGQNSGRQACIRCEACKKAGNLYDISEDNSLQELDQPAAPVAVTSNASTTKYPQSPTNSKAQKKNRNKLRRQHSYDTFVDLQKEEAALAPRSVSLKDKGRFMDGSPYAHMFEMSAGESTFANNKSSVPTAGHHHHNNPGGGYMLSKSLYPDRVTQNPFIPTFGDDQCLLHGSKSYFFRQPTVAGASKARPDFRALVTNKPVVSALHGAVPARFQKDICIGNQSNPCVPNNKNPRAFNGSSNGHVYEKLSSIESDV", "assay": "NR2B Ca2+ influx assay", "assay_type": "cell-based", "conditions": "10 μM compound, glutamic acid/glycine-induced Ca2+ influx, FLIPR, read-out: inhibitory rate (10 μM compound concentration)", "how_it_was_run": "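HEK293 cells expressing human GRIN1/GRIN2B were induced with tetracycline (diluted to 2 µg/mL) for 2 h, then Fluo-4AM loaded (2.5 µM) in pH 7.2 buffer with 1.8 mM CaCl2. Compound at 10 µM final was preincubated 15 min at room temperature, then challenged with buffer containing 30 µM glutamate/30 µM glycine. FLIPR fluorescence was read every 3 s for 5 min, with % inhibition from cumulative signal and agonist-free wells set as 100%.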"}, "[3]": {"biological_target": "T2, hERG channel (Homo sapiens, UniProt Q12809)", "T2 construct": "Medicine", "T2 sequence (Q12809 whole entry)": "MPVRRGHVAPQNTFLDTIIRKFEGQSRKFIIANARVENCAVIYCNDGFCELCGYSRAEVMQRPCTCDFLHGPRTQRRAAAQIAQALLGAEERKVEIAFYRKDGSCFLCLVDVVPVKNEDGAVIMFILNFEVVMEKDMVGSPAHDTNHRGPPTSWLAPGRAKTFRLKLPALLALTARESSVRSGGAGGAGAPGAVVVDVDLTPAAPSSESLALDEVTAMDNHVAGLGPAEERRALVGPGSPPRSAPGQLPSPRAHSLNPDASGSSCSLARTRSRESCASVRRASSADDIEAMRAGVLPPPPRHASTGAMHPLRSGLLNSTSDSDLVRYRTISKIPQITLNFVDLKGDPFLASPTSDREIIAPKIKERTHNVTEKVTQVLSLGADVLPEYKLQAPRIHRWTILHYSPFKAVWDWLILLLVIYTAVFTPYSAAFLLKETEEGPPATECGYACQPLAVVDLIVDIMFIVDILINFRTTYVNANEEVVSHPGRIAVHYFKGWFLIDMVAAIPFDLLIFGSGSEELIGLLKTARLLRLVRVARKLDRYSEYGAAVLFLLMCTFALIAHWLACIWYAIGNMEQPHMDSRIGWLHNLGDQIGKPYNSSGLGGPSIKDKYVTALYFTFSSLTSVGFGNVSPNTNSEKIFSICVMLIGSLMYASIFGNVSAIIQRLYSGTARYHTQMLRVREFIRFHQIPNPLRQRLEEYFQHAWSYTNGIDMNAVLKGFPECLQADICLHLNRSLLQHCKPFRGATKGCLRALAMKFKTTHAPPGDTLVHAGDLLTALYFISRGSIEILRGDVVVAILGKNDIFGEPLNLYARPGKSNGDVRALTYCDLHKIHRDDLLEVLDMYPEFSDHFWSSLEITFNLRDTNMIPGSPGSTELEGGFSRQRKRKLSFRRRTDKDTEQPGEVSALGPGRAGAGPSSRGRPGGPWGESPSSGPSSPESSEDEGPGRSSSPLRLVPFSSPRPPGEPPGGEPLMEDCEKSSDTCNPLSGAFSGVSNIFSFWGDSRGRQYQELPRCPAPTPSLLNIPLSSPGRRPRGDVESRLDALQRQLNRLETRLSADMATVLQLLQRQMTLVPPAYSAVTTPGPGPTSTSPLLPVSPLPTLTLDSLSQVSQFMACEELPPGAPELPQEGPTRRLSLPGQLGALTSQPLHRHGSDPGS", "assay": "hERG manual patch-clamp assay", "assay_type": "cell-based", "conditions": "10 μmol/L test solution; hERG peak tail current 3 to 5 min after application, HEK293 cells", "procedure": "hERG Manual Patch-Clamp Assay\nIn order to confirm “hERG channel inhibitory activity” which the compound of the present invention has, the hERG channel inhibitory activity was evaluated using human Ether-a-go-go-Related Gene (hERG)-expressing human embryonic kidney 293 (HEK293) cells.\nhERG-stably expressing HEK293 cells were purchased from University of Wisconsin-Madison Dept. Medicine. The cells were cultured in a medium prepared by adding 10% FBS (fetal bovine serum, Life Technologies Corporation), sodium pyruvate (1 mmol/L; Life Technologies Corporation), MEM Non-Essential Amino Acid (1×; Life Technologies Corporation), 100 units/mL penicillin, 100 μg/mL streptomycin (Life Technologies Corporation) and 400 μg/mL G 418 (Geneticin, Sigma-Aldrich Co. LLC.) to Minimum Essential Medium (Sigma-Aldrich Co. LLC.) at 37° C., 5% CO2. The cultured cells were detached, suspended in a medium, and seeded on a cover glass, cultured, and used in a patch-clamp assay. […]\nThe hERG current passing through whole cell membranes under voltage-clamp was recorded by whole-cell patch-clamp method. […] During measurement, the extracellular fluid temperature in the chamber was set at 20 to 25° C., and the hERG current was measured using patch-clamp amplifier (Axopatch-200B, Molecular Devices, LLC). The obtained electrical signal was recorded on a computer via patch-clamp record and analysis software (pCLAMP 10, Molecular Devices, LLC). The absolute value of the hERG current value (peak tail current) was calculated based on the current value when depolarizing pulse at −50 mV, 110 msec was given, and the change (inhibitory rate) in the hERG current value (peak tail current) 3 to 5 min after the application of the 10 μmol/L test solution relative to before the application was calculated."}, "[4]": {"conditions": "single intravenous administration; major depression and bipolar disorder; cited from earlier work"}, "[5]": {"conditions": "in vivo; cited from earlier work"}, "[6]": {"conditions": "rodents; number of occurrence and depth; cited from earlier work"}, "[7]": {"conditions": "continuous intravenous administration; cited from earlier work"}, "[8]": {"conditions": "in vivo; cited from earlier work", "remark": "listed apart in the source"}},
  "data": [
    {"smiles": "O=C(NCc1cnn2ncccc12)c1cnc(OC(F)F)c(F)c1", "note": "[Example 6, 6-(difluoromethoxy)-5-fluoro-N-(pyrazolo[1,5-b]pyridazin-3-ylmethyl)nicotinamide]", "values": [
      {"measurement": "inhibitory rate (3 mg/kg, p.o.)", "setting": "[1]", "value": 33, "unit": "%"},
      {"measurement": "inhibition at 10 µM", "setting": "[2]", "value": 97, "unit": "%"},
      {"measurement": "inhibitory rate (10 μM compound concentration)", "setting": "[3]", "value": 16.5}
    ]},
    {"smiles": "CNC1(c2ccccc2Cl)CCCCC1=O", "note": "(stereo not drawn) [ketamine]", "values": [
      {"measurement": "effect on depression symptom", "setting": "[4]", "value": "improves depression symptom accompanying major depression and bipolar disorder rapidly and in a sustained manner"}
    ]},
    {"smiles": "CC(C(O)c1ccc(O)cc1)N1CCC(Cc2ccccc2)CC1", "note": "(stereo not drawn) [ifenprodil]", "values": [
      {"measurement": "effect on pain threshold", "setting": "[5]", "value": "increase in pain threshold"}
    ]},
    {"smiles": "C[C@@H]([C@@H](O)c1ccc(O)cc1)N1CCC(O)(c2ccccc2)CC1", "note": "[CP-101,606]", "values": [
      {"measurement": "effect on cortical spreading depression", "setting": "[6]", "value": "suppress the number of occurrence and the depth of cortical spreading depression"},
      {"measurement": "effect on treatment resistant-depression symptom", "setting": "[7]", "value": "significantly improves treatment resistant-depression symptom"}
    ]},
    {"smiles": "O=C(NCc1nnn2ccccc12)c1ccc(OC(F)(F)F)c(F)c1", "note": "[Example 13, 3-fluoro-N-([1,2,3]triazolo[1,5-a]pyridin-3-ylmethyl)-4-(trifluoromethoxy)benzamide]", "values": [
      {"measurement": "inhibitory rate (3 mg/kg, p.o.)", "setting": "[1]", "value": 23, "unit": "%"},
      {"measurement": "inhibition at 10 µM", "setting": "[2]", "value": 96, "unit": "%"},
      {"measurement": "inhibitory rate (10 μM compound concentration)", "setting": "[3]", "value": 33.2}
    ]},
    {"smiles": "CC12CC3CC(C)(C1)CC(N)(C3)C2", "note": "[memantine]", "values": [
      {"measurement": "effect on behavioral and psychological symptoms of dementia", "setting": "[8]", "value": "partially improves behavioral and psychological symptoms of dementia"}
    ]},
    {"smiles": "C[C@@H](CN1CCC(Cc2ccccc2)CC1)[C@@H](O)c1ccc(O)cc1", "note": "[Ro25-6981]", "values": [
      {"measurement": "effect on cortical spreading depression", "setting": "[6]", "value": "suppress the number of occurrence and the depth of cortical spreading depression"}
    ]},
    {"smiles": "Cn1ccn2ncc(CNC(=O)c3cnc(OC(F)F)c(F)c3)c12", "note": "[Example 58, 6-(difluoromethoxy)-5-fluoro-N-((1-methyl-1H-imidazo[1,2-b]pyrazol-7-yl)methyl)nicotinamide]", "values": [
      {"measurement": "inhibitory rate (3 mg/kg, p.o.)", "setting": "[1]", "value": 27, "unit": "%"},
      {"measurement": "inhibition at 10 µM", "setting": "[2]", "value": 97, "unit": "%"},
      {"measurement": "inhibitory rate (10 μM compound concentration)", "setting": "[3]", "value": 13.6}
    ]}
  ]
}
